Assay results published in patent publication US6458764B1, “GRF analogs with increased biological potency” (Theratechnologies Inc., priority 1995, dated 2002).

What was measured:
Assay type in all cases: in vivo, pigs (Landrace x Yorkshire)
[1] = test system: serum IGF-I; assay: Comparative effects of GRF analogs on IGF-I levels in pigs (Example II, D-IGF-I, FIG. 1); settings: 20 μg/kg 2×/day S.C., days 1 to 5, n=8 pigs per group
Experimental: This was a 5-day treatment, twice a day S.C. administration of one single dose of each test article vs saline. This experiment was conducted to compare the efficacy of (Aminohexanoyl)0 hGRF (1-29) NH2, (Hexylformiate)0 hGRF (1-29) NH2, (Hexenoyl trans-2)0 hGRF (1-29) NH2, (Hexenoyl trans-3)0 hGRF (1-29) NH2 and (Muconoyl)0 hGRF (1-29) NH2 to that of(Hexanoyl)0 hGRF (1-29) NH2.
ADMINISTRATION: Two daily subcutaneous injections.
(§1) TEST SYSTEM: Landrace x Yorkshire pigs.
ANIMAL DESCRIPTION: Fifty six (56) growing barrows pigs weighing 35 kg at the time of purchase.
DESIGN: Fifty six (56) pigs were randomly distributed into 7 experimental groups (n=8 pigs per group). Each group received two daily S.C. administration of the following treatments (volume: 3 ml, S.C. injection).
Treatments were administered from day 1 to 5. Immediately before the injections, one blood sample were collected from each animal, and additional blood samples were collected on day 6.
Blood samples were allowed to clot, serum was harvested by centrifugation and submitted to IGF-I assays.
Results are shown in FIG. 1 as D-IGF-I, which is defined as the increase in IGF-I levels from day 1 (pretreatment levels) to day 6 (after 5 days of GRFs administrations).

[2] = test system: serum IGF-I; assay: Repeated S.C. administrations of GRF analogs, serum IGF-I levels in pigs (Example I, Experiments 1-3; radioimmunoassay); settings: for serum IGF-I, Day 1 (pretreatment): pretreatment baseline; for increase in IGF-I levels: 20 μg/kg BID SC, P<0.05
Experimental: The objective of these experiments was to assess the potential of the GRF analogs as anabolic agents.
Therefore, in order to investigate the anabolic potency of the fatty acid-GRF analogs, their ability to increase IGF-I levels following repeated S.C. administrations in pig was evaluated.
26 Landrace x Yorkshire castrated male pigs (40-45 kg BW) were randomly distributed into 4 experimental groups:
Each animal was injected BID (twice a day) subcutaneously for 4 consecutive days. One blood sample was collected each morning prior to the first injection of the day, and the day after the last injection, for IGF-I measurement.
40 Landrace x Yorkshire castrated male pigs (40-45 kg BW) were randomly distributed into 5 experimental groups:
(§2) Each animal was injected BID (twice a day) subcutaneously for 5 consecutive days. One blood sample was collected each morning prior to the first injection of the day, and the day after the last injection, for IGF-I measurement.
48 Landrace x Yorkshire castrated male pigs (40-45 kg BW) were randomly distributed into 6 experimental groups:
as §2, with “The selected doses were 30 μg/kg for hGRF(1-44)NH2 analogs and 20 μg/kg for hGRF(1-29)NH2 analogs, which give identical doses on a molar basis. Each” for “Each”, “measurements.” for “measurement.”
IGF-I levels were measured in pig serum by double antibody radioimmunoassay after formic acid-acetone extraction, as previously described (Abribat T. et al., 1993, J. Endocrinol., 39:583-589). The extraction prior to radioimmunoassay is a necessary step to remove endogenous IGF-binding proteins.
In both experiments, the IGF-I data were analyzed by a two way repeated measure analysis of variance, with day and treatment (GRF analog) as sources of variation. Multiple comparison procedures were there run (Student-Newman Keuls method). A P<0.05 was considered as statistically significant.

[3] = test system: pig serum GH; assay: Subcutaneous GH-releasing potency in pigs (Example IV); settings: for effect on GH area under the curve, 0 to 420 minutes following injection: S.C., FIG. 5
Experimental: This experiment was conducted to test the S.C. acute GH-releasing potency of (Hexenoyl trans-3)0 hGRF (1-29) NH2, a GRF analog, in a model physiologically close to human and to compare it to that of hGRF(1-29)NH2.
ADMINISTRATION: Subcutaneous acute injection.
as §1
DESIGN: Thirty six (36) pigs (4 spare animals) were cannulated (a catheter surgically implanted in one jugular vein) within one week, before the study. On days 1 and 7, cannulated animals were randomly distributed into 8 groups (n=4 pigs per group).
Blood samples for pGH assay were collected every 20 min from 1 hour before to 7 hours after GRF injections, (n=25 samples). Blood samples were allowed to clot at +4CC. Serum is harvested by centrifugation, stored at −20° C. and submitted to pGH assays.

[4] = test system: pig serum GH; assay: Intravenous GH-releasing potency in pigs (Example III); settings: for effect on GH area under the curve (0 to 300 minutes following injection): I.V., FIG. 3
Experimental: This experiment was conducted to test the I.V. acute GH-releasing potency of (Hexenoyl trans-3)0 hGRF (1-29) NH2, a GRF analog, in a model physiologically close to human and to compare it to that of hGRF(1-29)NH2.
(Hexenoyl trans-3)0 hGRF (1-29) NH2 is a combination of the natural hGRF(1-29)NH2 and natural fatty acids. This study was a multidose, single I.V. injection study.
ADMINISTRATION: intravenous acute injection.
as §1
DESIGN: […] pigs (4 spare animals) were cannulated (a catheter surgically implanted in one jugular vein) within on week, before the study. On days 1 and 7, cannulated animals were randomly distributed into 7 groups (n=4 pigs per group).
Blood samples for pGH assay were collected every 20 min from 1 hour before to 5 hours after GRF injections, with additional samplings 10 and 30 min after injection (n=21 samples). Blood samples are allowed to clot at +4° C. Serum will be harvested by centrifugation, stored at −20° C. and submitted to pGH assays.

[5] = Experiment 1, 20 μg/kg BID SC × 4 days, mean of 6 to 7
[6] = Experiment 2, 10 μg/kg BID SC × 5 days, mean of 8
[7] = Experiment 2, 20 μg/kg BID SC × 5 days, mean of 8
[8] = Experiment 2, 40 μg/kg BID SC × 5 days, mean of 8
[9] = Experiment 3, 20 μg/kg BID SC × 5 days, mean of 8
[10] = one intravenous injection, 4 μg/kg, FIG. 2

Question: With “(Hexanoyl)0 hGRF (1-29) NH2 (YADAIFTNSYRKVLGQLSARKLLQDIMSR; HELM PEPTIDE1{[CCCCCC(=O)[*:2]].Y.A.D.A.I.F.T.N.S.Y.R.K.V.L.G.Q.L.S.A.R.K.L.L.Q.D.I.M.S.R.[am]}$$$$V2.0; SMILES CCCCCC(=O)N[C@@H](Cc1ccc(O)cc1)C(=O)N[C@@H](C)C(=O)N[C@@H](CC(=O)O)C(=O)N[C@@H](C)C(=O)N[C@H](C(=O)N[C@@H](Cc1ccccc1)C(=O)N[C@H](C(=O)N[C@@H](CC(N)=O)C(=O)N[C@@H](CO)C(=O)N[C@@H](Cc1ccc(O)cc1)C(=O)N[C@@H](CCCNC(=N)N)C(=O)N[C@@H](CCCCN)C(=O)N[C@H](C(=O)N[C@@H](CC(C)C)C(=O)NCC(=O)N[C@@H](CCC(N)=O)C(=O)N[C@@H](CC(C)C)C(=O)N[C@@H](CO)C(=O)N[C@@H](C)C(=O)N[C@@H](CCCNC(=N)N)C(=O)N[C@@H](CCCCN)C(=O)N[C@@H](CC(C)C)C(=O)N[C@@H](CC(C)C)C(=O)N[C@@H](CCC(N)=O)C(=O)N[C@@H](CC(=O)O)C(=O)N[C@H](C(=O)N[C@@H](CCSC)C(=O)N[C@@H](CO)C(=O)N[C@@H](CCCNC(=N)N)C(N)=O)[C@@H](C)CC)C(C)C)[C@@H](C)O)[C@@H](C)CC; UniProt P01286 32-60, looked up, fragment) [[hexanoyl^0] hGRF(1-29)NH2]” as the substance, how does the “D-IGF-I: increase in IGF-I levels from day 1 (pretreatment) to day 6” value [1] read?
Answer: significantly increased IGF-I levels

Question: And the “serum IGF-I, Day 2” value [2, 5]?
Answer: 281 ng/mL

Question: What about the “serum IGF-I, Day 3” value [2, 5] of the same substance?
Answer: 299 ng/mL

Question: What about the “serum IGF-I, Day 4” value [2, 5] of the same substance?
Answer: 319 ng/mL

Question: What about the “serum IGF-I, Day 5” value [2, 5] of the same substance?
Answer: 342 ng/mL

Question: And the “serum IGF-I, Day 1 (pretreatment)” value [2, 5]?
Answer: 248 ng/mL

Question: And the “increase in IGF-I levels” value ([2]; Experiment 1, day 4)?
Answer: 29%

Question: And the “increase in IGF-I levels” value ([2]; Experiment 1, day 5)?
Answer: 38%

Question: And the “serum IGF-I, Day 2” value [2, 6]?
Answer: 327 ng/mL

Question: And the “serum IGF-I, Day 3” value [2, 6]?
Answer: 337 ng/mL

Question: And the “serum IGF-I, Day 4” value [2, 6]?
Answer: 338 ng/mL

Question: And the “serum IGF-I, Day 5” value [2, 6]?
Answer: 366 ng/mL

Question: And the “serum IGF-I, Day 6” value [2, 6]?
Answer: 350 ng/mL

Question: And the “serum IGF-I, Day 1 (pretreatment)” value [2, 6]?
Answer: 303 ng/mL

Question: What about the “serum IGF-I, Day 2” value [2, 7] of the same substance?
Answer: 341 ng/mL

Question: And the “serum IGF-I, Day 3” value [2, 7]?
Answer: 368 ng/mL

Question: And the “serum IGF-I, Day 4” value [2, 7]?
Answer: 362 ng/mL

Question: And the “serum IGF-I, Day 5” value [2, 7]?
Answer: 362 ng/mL

Question: And the “serum IGF-I, Day 6” value [2, 7]?
Answer: 368 ng/mL

Question: And the “serum IGF-I, Day 1 (pretreatment)” value [2, 7]?
Answer: 302 ng/mL

Question: And the “serum IGF-I, Day 2” value [2, 8]?
Answer: 275 ng/mL

Question: And the “serum IGF-I, Day 3” value [2, 8]?
Answer: 319 ng/mL

Question: And the “serum IGF-I, Day 4” value [2, 8]?
Answer: 354 ng/mL

Question: What about the “serum IGF-I, Day 5” value [2, 8] of the same substance?
Answer: 350 ng/mL

Question: What about the “serum IGF-I, Day 6” value [2, 8] of the same substance?
Answer: 374 ng/mL

Question: And the “serum IGF-I, Day 1 (pretreatment)” value [2, 8]?
Answer: 252 ng/mL

Question: And the “serum IGF-I, Day 2” value [2, 9]?
Answer: 292 ng/mL

Question: And the “serum IGF-I, Day 3” value [2, 9]?
Answer: 292 ng/mL

Question: And the “serum IGF-I, Day 4” value [2, 9]?
Answer: 315 ng/mL

Question: What about the “serum IGF-I, Day 5” value [2, 9] of the same substance?
Answer: 347 ng/mL

Question: What about the “serum IGF-I, Day 6” value [2, 9] of the same substance?
Answer: 356 ng/mL

Question: What about the “serum IGF-I, Day 1 (pretreatment)” value [2, 9] of the same substance?
Answer: 272 ng/mL

Question: And the “increase in IGF-I levels” value ([2]; Experiment 3, day 5)?
Answer: 28%

Question: And the “increase in IGF-I levels” value ([2]; Experiment 3, day 6)?
Answer: 31%

Question: Which “effect on GH area under the curve, 0 to 420 minutes following injection” value ([3]; 5 μg/kg) does the source give for “(Hexenoyl trans-3)0 hGRF (1-29) NH2 (YADAIFTNSYRKVLGQLSARKLLQDIMSR; HELM PEPTIDE1{[CC/C=C/CC(=O)[*:2]].Y.A.D.A.I.F.T.N.S.Y.R.K.V.L.G.Q.L.S.A.R.K.L.L.Q.D.I.M.S.R.[am]}$$$$V2.0; SMILES CC/C=C/CC(=O)N[C@@H](Cc1ccc(O)cc1)C(=O)N[C@@H](C)C(=O)N[C@@H](CC(=O)O)C(=O)N[C@@H](C)C(=O)N[C@H](C(=O)N[C@@H](Cc1ccccc1)C(=O)N[C@H](C(=O)N[C@@H](CC(N)=O)C(=O)N[C@@H](CO)C(=O)N[C@@H](Cc1ccc(O)cc1)C(=O)N[C@@H](CCCNC(=N)N)C(=O)N[C@@H](CCCCN)C(=O)N[C@H](C(=O)N[C@@H](CC(C)C)C(=O)NCC(=O)N[C@@H](CCC(N)=O)C(=O)N[C@@H](CC(C)C)C(=O)N[C@@H](CO)C(=O)N[C@@H](C)C(=O)N[C@@H](CCCNC(=N)N)C(=O)N[C@@H](CCCCN)C(=O)N[C@@H](CC(C)C)C(=O)N[C@@H](CC(C)C)C(=O)N[C@@H](CCC(N)=O)C(=O)N[C@@H](CC(=O)O)C(=O)N[C@H](C(=O)N[C@@H](CCSC)C(=O)N[C@@H](CO)C(=O)N[C@@H](CCCNC(=N)N)C(N)=O)[C@@H](C)CC)C(C)C)[C@@H](C)O)[C@@H](C)CC; UniProt P01286 32-60, looked up, fragment) [hexenoyl trans3-hGRF(1-29)NH2]” here?
Answer: significant increases of the GH AUC

Question: What about the “effect on GH area under the curve, 0 to 420 minutes following injection” value ([3]; 20 μg/kg) of the same substance?
Answer: significant increases of the GH AUC

Question: What about the “duration of GH response following administration” value ([3]; one subcutaneous injection, 5 μg/kg, FIG. 4) of the same substance?
Answer: 240 min

Question: What about the “D-IGF-I: increase in IGF-I levels from day 1 (pretreatment) to day 6” value [1] of the same substance?
Answer: significantly increased IGF-I levels

Question: What about the “effect on GH area under the curve (0 to 300 minutes following injection)” value (“effect … (0 to 300 minutes following injection)” below) ([4]; 0.25 μg/kg) of the same substance?
Answer: significant response

Question: And the “effect … (0 to 300 minutes following injection)” value ([4]; 1 μg/kg)?
Answer: significant response

Question: And the “effect … (0 to 300 minutes following injection)” value ([4]; 4 μg/kg)?
Answer: significant response

Question: What about the “GH response in the first 60 minutes” value [4, 10] of the same substance?
Answer: moderate

Question: And the “duration of GH release following injection” value [4, 10]?
Answer: approximately 260 minutes
